Entries after “also recorded” stand apart in the source; their conditions may differ.
Assays:
KYSE450 [1] = format: cell-based, human; conditions: 10 μM cisplatin, 48 hours
Experimental: (§1) Viability of esophageal cells was assessed using the MTT reduction assay. Cells are seeded at 2×10^4 (OE33/OE19) and 1×10^4 (OE21/KYSE450) cells per cm^2, treated for 48-96 hours and incubated for an additional 60 minutes at 37° C. in 0.5 mg/ml MTT dye. Viable, metabolizing cells reduce MTT dye, producing a dark formazan product, with absorbance read at 562 nm, reference wavelength 620 nm. To assess recovery, at 48 hours post treatment, in replicate plates (identical seeding & treatment times), all drugs were removed, culture medium was replaced, and these cells were cultured for a further 48-96 hours, to monitor their ability to recover and MTT assay was repeated.
(§2) In analysis of MTT data, values are presented as the Mean absorbance+/−Standard Error of the Mean (S.E.M) for four independent experiments. Statistical analysis was performed with paired Student's t-test. Values of p<0.05 were considered statistically significant. Asterisks indicate the level of significance.

LC3 in KYSE450 cells = test: LC3 / GFP-LC3 processing and distribution (Western blot, fluorescence microscopy); format: cell-based, human; conditions: 5-FU or cisplatin (data not shown)
Experimental: (§3) Total cellular protein extracts were prepared by scraping the cells into modified RIPA buffer (50 mM Tris HCl (pH 7.4), 150 mM NaCl, 0.25% Sodium deoxycholate, 1% Igepal, protease inhibitors 1 mM EDTA, 1× Pefabloc, 1× protease inhibitor cocktail, 1 mM Na3VO4, 1 mM NaF). All protein samples were separated by SDS-PAGE (10/12%) and electrophoretically transferred onto nitrocellulose membrane. All primary antibodies were incubated overnight at 4° C.: anti-phospho mTOR (Ser 2448) and anti-p70^S6K (Thr 389) (Cell Signaling Technologies, UK), anti-Beclin-1 (BD Biosciences, UK) and anti-LC3 (Medical & Biological Laboratories, Japan). The membranes were incubated with the relevant horseradish peroxidase conjugated secondary antibodies (DakoCytomation, Dublin) and detected by chemiluminescence (ECL Amersham, UK).
(§4) To visualize and quantify the formation of autophagic vesicles, the green fluorescent protein (GFP)-LC3 (pEGFP-LC3) expression vector, kindly supplied by Dr. T. Yoshimori (National Institute of Genetics, Japan) was used. Cells were transiently transfected with the Amaxa electroporation system according to the supplier's protocol. Twenty-four hours post transfection, cells were treated with 5-FU and/or Cisplatin, fixed in 4% paraformaldehyde in PBS and transferred onto slides using a non-fluorescent fixative for analysis by fluorescence microscopy. Alternatively, Western Blot analysis was used to assess the expression and processing of LC3. […] The membrane sequestered, lipid-conjugated form of LC3-II remains with the autophagosome membrane after the vesicle has formed, and levels of both isoform are detected by Western Blot. Transfection efficiency was consistent for a given cell line, OE33 and KYSE450 cell lines (˜60-70%) compared to OE19 and OE21 cell lines (˜30%).

LC3 in OE33 cells = test: as above; format: cell-based, human; conditions: 5-FU or cisplatin (images not shown)
Experimental: as §3, §4

LC3 in OE19 cells = test: as above; format: cell-based, human; conditions: 5-FU (25 & 50 μM) or cisplatin (10 & 25 μM)
Experimental: as §3, §4

LC3 in OE21 cells = test: as above; format: cell-based, human; conditions: 5-FU or cisplatin (images not shown)
Experimental: as §3, §4

[2] = tested on: active caspase-3 in OE33 cells; test: Active caspase-3 by flow cytometry; format: cell-based, human; conditions: 48 hours after treatment
Experimental: (§5) To examine control and 5-Fluorouracil treated cells for evidence of caspase activity cells were processed by trypsinization, 48 hours after treatment. […] This was detected with an anti rabbit FITC conjugated secondary antibody, and samples were analyzed by FACScan at 530 nm (FL-1). Percentages indicate the proportion of cells with active caspase-3, detected as an increase in the number of FITC (FL-1) labelled cells.

[3] = tested on: active caspase-3 in OE19 cells; test: Active caspase-3 by flow cytometry; format: cell-based, human; conditions: 48 hours after treatment
Experimental: as §5

[4] = tested on: active caspase-3 in OE21 cells; test: Active caspase-3 by flow cytometry; format: cell-based, human; conditions: 48 hours after treatment
Experimental: as §5

[5] = tested on: active caspase-3 in KYSE450 cells; test: Active caspase-3 by flow cytometry; format: cell-based, human; conditions: 48 hours after treatment, range of concentrations
Experimental: as §5

OE19 [6] = test: MTT viability and recovery assay; format: cell-based, human; conditions: 10 μM cisplatin, 48 hours
Experimental: as §1, §2

OE33 [7] = test: MTT viability and recovery assay; format: cell-based, human; conditions: 10 μM cisplatin, 48 hours
Experimental: as §1, §2

OE21 [8] = test: MTT viability and recovery assay; format: cell-based, human; conditions: 10 μM cisplatin, 48 hours
Experimental: as §1, §2

OE19 [9] = test: Evaluation of cell death morphology by light microscopy; format: cell-based, human
Experimental: (§6) Morphological features of cells treated with 5-fluorouracil (5-FU)/cisplatin, without and with 3-MA, LY294002, Bafilomycin, Lithium chloride, rapamycin or HA14-I were examined by light microscopy. Morphologies of treated cells were examined 24 and 48 hours post treatment, treatment times are referred to in figure legends. Aliquots of vehicle control and drug treated cells were cytospun onto glass slides and stained with Rapi-Diff (Braidwood laboratories, UK). The extent of apoptotic and non-apoptotic cell death was determined by counting the cells in at least three fields of view per slide, with an average of ˜100 cells per field. Apoptotic cell death is characterized by the presence of two or more of the following morphological features: cell shrinkage, chromatin condensation, DNA degradation and fragmentation into ‘apoptotic bodies’, within an intact plasma membrane. Autophagic cell death was identified by clear elevation of cytoplasmic vesicles, loss of cytoplasmic material, pyknosis of the nuclear material and an intact nuclear membrane. Cytospin images are representative of at least three independent experiments.

OE33 [10] = test: as above; format: cell-based, human; conditions: 5-FU (50 μM) or cisplatin (40 μM), 48 hours
Experimental: as §6

KYSE450 [11] = test: as above; format: cell-based, human; conditions: 5-FU (50 μM) or cisplatin (40 μM), 48 hours
Experimental: as §6

OE19 [12] = test: Monodansylcadaverine (MDC)-labelled vacuoles; format: cell-based, human; conditions: 25 μM
Experimental: (§7) MDC is an autofluorescent weak base that accumulates in acidic lysosomal vacuoles, showing high selectivity for autophagosomes, due to the high level of unhydrolyzed membrane lipids from engulfed organelles, which enhance MDC fluorescence. Cells were incubated with 0.1 mM MDC in PBS at 37° C. for 10 minutes (Biederbick et al., 1995), washed and immediately analyzed by fluorescent microscopy.

OE33 [13] = test: Monodansylcadaverine (MDC)-labelled vacuoles; format: cell-based, human; conditions: 25 μM
Experimental: as §7

OE21 [14] = test: Monodansylcadaverine (MDC)-labelled vacuoles; format: cell-based, human; conditions: 25 μM
Experimental: as §7

KYSE450 [15] = test: Monodansylcadaverine (MDC)-labelled vacuoles; format: cell-based, human; conditions: 25 μM
Experimental: as §7

OE21 [16] = conditions: 48 hours
Experimental: as §6

OE19 [17] = test: Mitochondrial depolarization, JC-1 probe; format: cell-based, human; conditions: 48 hour treatment
Experimental: (§8) Mitochondrial membrane potential was determined using the JC-1 probe (Molecular Probes). In non-apoptotic cells, JC1 accumulates as aggregates in the mitochondria, which stain red (FL2; 590 nm). At the onset of apoptosis, a loss of mitochondrial membrane potential (ΔΨm) releases the aggregated JC1, returning it to its monomeric form, which stains the cytosol green (FL1; 530 nm). Therefore, fluorescence of the JC-1 probe in the FL-2 channel decreases as mitochondrial membrane integrity is lost, while the fluorescence in FL-1 channel increases. Cells were incubated in JC1 (7.5 μg/ml) at 37° C. for 15 mins, and washed prior to analysis by flow cytometry (FACScan, Becton Dickinson). Percentages denote the proportion of cells with depolarised mitochondria following 48 hour incubation with 5-Fluorouracil and represent at least three independent experiments.

OE33 [18] = test: Mitochondrial depolarization, JC-1 probe; format: cell-based, human; conditions: 48 hour treatment
Experimental: as §8

OE21 [19] = test: Mitochondrial depolarization, JC-1 probe; format: cell-based, human; conditions: 48 hour treatment
Experimental: as §8

KYSE450 [20] = test: Mitochondrial depolarization, JC-1 probe; format: cell-based, human; conditions: 48 hour treatment
Experimental: as §8

[21] = 40 μM cisplatin, 48 hours (FIG. 1c)

## N.N.[Cl][Pt][Cl] [cisplatin]
KYSE450 [1]
  cell viability (MTT): only marginally affected
LC3 in KYSE450 cells
  GFP-LC3 distribution (fluorescence microscopy): Redistribution of GFP-LC3 from a diffuse cytosolic to a punctate autophagosome-associated pattern
LC3 in OE33 cells
  GFP-LC3 distribution (fluorescence microscopy): Diffuse cytoplasmic localization of GFP-LC3
LC3 in OE19 cells
  GFP-LC3 distribution (fluorescence microscopy): Redistribution of GFP-LC3 from a diffuse cytosolic to a punctate autophagosome-associated pattern; also recorded: bright punctate patterns of GFP-LC3 fluorescence
LC3 in OE21 cells
  GFP-LC3 distribution (fluorescence microscopy): Diffuse cytoplasmic localization of GFP-LC3
[2]
  active caspase-3: displayed active caspase-3
[3]
  active caspase-3: do not show caspase-3 activity
[4]
  active caspase-3: displayed active caspase-3
[5]
  active caspase-3: do not show caspase-3 activity
OE19 [6]
  cell viability (MTT): only marginally affected
OE33 [7]
  cell viability (MTT): significant effects on cell viability
OE21 [8]
  cell viability (MTT): significant effects on cell viability
OE19 [9]; [21]
  apoptosis: 0.5%
  non-apoptotic cell death: 38%
OE19 [9]; 5-FU (50 μM) or cisplatin (40 μM), 48 hours
  cell death morphology: predominantly non-apoptotic morphology
OE33 [10]
  cell death morphology: predominantly apoptotic cell death morphology
KYSE450 [11]
  cell death morphology: predominantly non-apoptotic morphology
OE19 [12]
  MDC staining pattern: accumulation of MDC (bright blue punctate staining) throughout the cytoplasm
OE33 [13]
  MDC staining pattern: MDC staining patterns are diffuse
OE21 [14]
  MDC staining pattern: MDC staining patterns are diffuse
KYSE450 [15]
  MDC staining pattern: accumulation of MDC (bright blue punctate staining) throughout the cytoplasm
OE21 [16]; 40 μM cisplatin
  apoptotic cell death: 31%
  non-apoptotic cell death: 3%
OE21 [16]; 5-FU (50 μM) or cisplatin (40 μM)
  cell death morphology: predominantly apoptotic cell death morphology
OE19 [17]
  mitochondrial depolarization (JC-1): do not show caspase-3 activity or mitochondrial membrane depolarization
OE33 [18]
  mitochondrial depolarization (JC-1): mitochondrial depolarization
OE21 [19]
  mitochondrial depolarization (JC-1): mitochondrial depolarization
KYSE450 [20]
  mitochondrial depolarization (JC-1): do not show caspase-3 activity or mitochondrial membrane depolarization
